From PMC7582767, “Protective Effect of CXCR4 Antagonist CX807 in a Rat Model of Hemorrhagic Stroke” (International Journal of Molecular Sciences, 2020)

Target: T1, CXCR4 (C-X-C chemokine receptor type 4) (Homo sapiens, UniProt P61073)
T1 construct: purified membrane fractions of HEK293 cells overexpressing CXCR4
Test: […]CXCL12 radioligand displacement on CXCR4 membranes
Format: binding

T1 sequence (P61073 whole entry): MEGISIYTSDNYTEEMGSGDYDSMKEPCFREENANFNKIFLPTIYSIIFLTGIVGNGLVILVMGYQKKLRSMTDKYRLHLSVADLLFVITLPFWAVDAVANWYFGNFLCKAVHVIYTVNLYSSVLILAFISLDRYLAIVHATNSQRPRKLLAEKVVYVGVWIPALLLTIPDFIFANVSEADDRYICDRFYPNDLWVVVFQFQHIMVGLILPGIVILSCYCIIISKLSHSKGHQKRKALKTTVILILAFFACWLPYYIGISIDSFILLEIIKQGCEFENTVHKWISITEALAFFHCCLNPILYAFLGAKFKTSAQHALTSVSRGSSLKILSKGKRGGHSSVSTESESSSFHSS

SMILES: Cc1cc(NC2CCN(C(=O)CCNCC(=O)O)CC2)nc(NCc2nc(CCCNCCCNC3CCCCC3)co2)n1 [CX807]
- IC50: 65.4 ± 11.8 nM
